Reference: patent US9283285B2, “Stable nanocomposition comprising docetaxel, process for the preparation thereof, its use and pharmaceutical compositions containing it” (BBS Nanotechnology Ltd., priority 2013, dated 2016)

Test system: HeLa cells, A2780 cells
Experiment: growth profile of cells by Real Time Analyser (xCELLigence RTCA, Roche)
Assay type: cell-based, human
Conditions: HeLa and A2780 cells; same concentration of docetaxel; FIG. 2
From the text: FIG. 2A, 2B: HeLa and A2780 measured by Real Time Analyser (Roche). These figures show the growth profile of HeLa cells (A), and A2780 cells (B) after treating with docetaxel drug molecules (D), docetaxel-loaded nanoparticles (NP) and control cells (C). The injected volume contained the same concentration of docetaxel.
The xCELLigence RTCA HT Instrument from Roche Applied Science uses gold electrodes at the bottom surface of microplate wells as sensors to which an alternating current is applied. Cells that are grown as adherent monolayers on top of such electrodes influence the alternating current at the electrodes by changing the electrical resistance (impedance). The degree of this change is primarily determined by the number of cells, strength of the cell-cell interactions, interactions of the cells with the microelectrodes and by the overall morphology of the cells. The RTCA Software calculates the Cell Index (CI) as the relative change in measured impedance to represent cell status. The normalized cell index (NCI—plotted on y axis) is the relative cell impedance presented in the percentage of the value at the base-time. […] NCI increases by rise of cell-number or cell-size. For example NCI value in a culture treated with a proliferation inhibitory drug first can increase (because the cell-size grows) and after decreases (because the cell-number reduces)

CC(=O)O[C@@]12CO[C@@H]1C[C@H](O)[C@@]1(C)C(=O)[C@H](O)C3=C(C)[C@@H](OC(=O)[C@H](O)[C@@H](NC(=O)OC(C)(C)C)c4ccccc4)C[C@@](O)([C@@H](OC(=O)c4ccccc4)[C@H]21)C3(C)C [docetaxel, 1,7β,10β-trihydroxy-9-oxo-5β,20-epoxytax-11-ene-2α,4,13α-triyl 4-acetate 2-benzoate 13-{(2R,3S)-3-[(tert-butoxycarbonyl)amino]-2-hydroxy-3-phenylpropanoate}]
effect on growth profile (normalized cell index) of tumor cell lines: similar
